Consider two compounds from publication PMC10028264, “Synergistic antifungal interaction of N-(butylcarbamothioyl) benzamide and amphotericin B against Cryptococcus neoformans” (Frontiers in Microbiology, 2023).

≈ marks a conversion by molar mass, not a printed value.

For series [1], the system named is Cryptococcus neoformans. The series can be described thus: Fungal capsule and cell size (Chinese ink, light microscopy). The series is classed as cell-based. To be noted: compared to untreated cells; ATCC 34872 and 1172; 48 h; p < 0.05. As for the experimental part: For all assays, fungal cells were incubated in RPMI-MOPS (except when specified) supplemented with BTU-01 and AmB alone at MIC and MFC values or combined at the synergistic MIC values. Untreated fungal cells were considered as control.
Cryptococcus neoformans was cultivated in a minimal capsular induction medium (15 mM glucose, 10 mM MgSO4, 29.4 mM KH2PO4, 13 mM glycine and 3 μM thiamine-HCl, pH 5.5) at 37°C for 7 days ([Frases et al., 2009]). Afterward, a standard fungal suspension was prepared as described above, and the cells (1.0 × 10^7 CFU/mL) were treated with the compounds at 37°C for 48 h. Cells were collected by centrifugation (10,000 × g, 1 min), suspended in an equal volume of Chinese ink on glass slides, spread the smear evenly with coverslips, and observed with a Zeiss Axio Imager 2 microscope (Zeiss, Germany). The capsule size of 100 randomly chosen cells was measured by using the software ImageJ 1.49v.^1 The capsule thickness was determined according to [Spadari et al. (2019)], which consisted of the difference between the diameter of the cell, including the capsule, with the diameter of the body cell within the cell wall.

Series [2] deals with Cryptococcus neoformans biofilm. The experiment in a line: Checkerboard assay on 72-h biofilms. It is filed as cell-based. Particulars: 72-h biofilm. As for the experimental part: The antifungal effect of BTU-01 combined with AmB was evaluated using the checkerboard broth microdilution assay, according to [Scott et al. (1995)]. […] The Fractional Inhibitory Concentration (FIC) of each compound was determined by the ratio of the MIC obtained when the compounds were tested in combination and the MIC of the compounds tested individually. […] Untreated and treated biofilms were incubated at 37°C for further 24 h, and then washed with saline. The biofilm viability was analyzed by the MTT reduction assay as described above. […] The checkerboard assays were performed to analyze the effect of the combination with BTU-01 and AmB on 72-h biofilms. The results of the combination were interpreted using the FICI as described previously.

The test system of series [3] is C neoformans mature biofilms. The arrangement: method as in Martinez and Casadevall, 2006. Particulars: strains ATCC 24067, ATCC B3501 and H99; ref Martinez and Casadevall, 2006; cited from earlier work.
The subject of series [4] is Cryptococcus neoformans. The experiment in a line: Checkerboard broth microdilution assay on planktonic cells. To be noted: both strains (ATCC 34872 and 1172). The series is classed as cell-based. As for the experimental part: The antifungal effect of BTU-01 combined with AmB was evaluated using the checkerboard broth microdilution assay, according to [Scott et al. (1995)]. Twofold serial dilutions of BTU-01 (0.03–1000.0 μg/mL) and AmB (0.000001–16.0 μg/mL) were respectively added across the rows and columns of the U-bottom 96-well microtiter plates. Thereafter, 100 μL (0.5–2.5 × 10^3 CFU/mL) of fungal inoculum was added and the plates were incubated at 37°C for 72 h. The Fractional Inhibitory Concentration (FIC) of each compound was determined by the ratio of the MIC obtained when the compounds were tested in combination and the MIC of the compounds tested individually. The FIC Index (FICI) was calculated from the sum of the FICBTU–01 and FICAmB, and the value was interpreted as: synergism FICI ≤ 0.5, no interaction 0.5 < FICI < 4.0, and antagonism FICI > 4.0 ([Odds, 2003]).
(In general: Dilution methods test growth across graded concentrations, often in twofold steps.)

The nature of series [5]: Cytotoxicity, MTT reduction assay. It is filed as cell-based. Particulars: 24 h, MTT. As for the experimental part:
(§1) The effect of BTU-01 was analyzed on mammalian epithelial cell lines [HEp-2 CCL-23™ (ATCC), LLC-MK2, VERO CCL81 and HeLa (Merck, Brazil)], and the cytotoxicity was evaluated as described by [Longhi et al. (2016)] with modifications. Briefly, cells were cultured in Dulbecco’s Modified Eagle’s medium (DMEM) supplemented with 10% fetal bovine serum (Invitrogen, Brazil), 2 mM L-glutamine, 100 IU/mL penicillin, 100 μg/mL streptomycin, 1% tylosin in flat-bottomed 96-well microtiter plates, in 5% CO2 at 37°C for 48 h. Then, the medium was carefully removed and fresh medium containing twofold serially diluted BTU-01 (0.095–500.0 μg/mL) was added. The cells were incubated for further 24 h under the same conditions. Cell viability was analyzed by the MTT reduction assay according to the manufacturer’s recommendation. The concentration of the compound needed to inhibit the viable cells up to 50 and 90% by regression analysis corresponds to the 50% (CC50) and 90% (CC90) cytotoxic concentrations, respectively.
(§2) The concentration of BTU-01 capable of causing 90% of hemolysis/cytotoxicity was used to calculate the selectivity index (SI) using the following equation: SI = CC90/MIC.
On the technique in general: Tetrazolium dyes change colour on reduction, which living cells bring about.

Series [6] deals with HeLa. The experiment in a line: Cytotoxicity, MTT reduction assay. The series is classed as cell-based. Particulars: SI = CC90/MIC, MIC 62.5 μg/mL. The method, then:
as §1, §2

Series [7] has as its system LLC-MK2. The experiment in a line: Cytotoxicity, MTT reduction assay. To be noted: SI = CC90/MIC, MIC 62.5 μg/mL. It is filed as cell-based. As for the experimental part: as §1, §2
Series [8] relates to VERO-CCL81. The experiment in a line: Cytotoxicity, MTT reduction assay. The series is classed as cell-based. To be noted: SI = CC90/MIC, MIC 62.5 μg/mL. The method, then:
as §1, §2

A short description of series [9]: Cytotoxicity, MTT reduction assay, ranges over all cell lines. It is filed as cell-based. To be noted: different cell lines. The method, then: as §1, §2
The test system of series [10] is human erythrocytes. The experiment in a line: Hemolysis assay. To be noted: estimated from the highest concentration tested; all cryptococcal strains. The series is classed as cell-based. The method, then:
The cytotoxicity of BTU-01 (1.95–1000.0 μg/mL) alone and combined with AmB (0.015–16.0 μg/mL) was evaluated on human erythrocytes. Blood from a healthy donor was collected according to the Declaration of Helsinki principles, defibrinated and an erythrocytes suspension (3%) was prepared in 5% glycosylated saline. A total of 100 μL of the erythrocytes suspension was incubated for 3 h at 37°C in wells of U-bottom 96-well polystyrene plates containing different concentrations of the compounds. Wells without the compounds and with 1% Triton X-100 were used as negative and positive hemolysis controls, respectively. The OD of the supernatant was determined at 550 nm with a microtiter plate reader (Synergy HT, BioTek, USA). The percentage of hemolysis was calculated by comparison with the positive control ([Izumi et al., 2012]).
as §2

[11] abbreviates: African green monkey, VERO CCL81 cells.

Take `C[C@@H]1[C@H](O)[C@@H](C)/C=C/C=C/C=C/C=C/C=C/C=C/C=C/[C@H](O[C@@H]2O[C@H](C)[C@@H](O)[C@H](N)[C@@H]2O)C[C@@H]2O[C@](O)(C[C@@H](O)C[C@@H](O)[C@H](O)CC[C@@H](O)C[C@@H](O)CC(=O)O[C@H]1C)C[C@H](O)[C@H]2C(=O)O` [Amphotericin B, amphotericin B]: in [1], the capsule size result is “significant reduction” and the cell size result is “significant reduction”. Also, the “reduction in SMIC80 value in combination” value in series [2] (1172 strain) is 8 fold. For the same compound, the “reduction in SMIC80 value in combination” value in [2] (ATCC 34872) came to 8 fold. Besides, the “concentration inhibiting metabolic activity of mature biofilms” value in series [3] is recorded as “higher than 2.0 μg/mL”.
Regarding `CCCCNC(=S)NC(=O)c1ccccc1` [BTU-01, N-(butylcarbamothioyl) benzamide], the “decrease in MIC value in combination” value in series [4] came out at 16 fold. Also, the capsule size entry in series [1] is recorded as “significant reduction”. The cell size entry in series [1] is listed as “significant reduction”. Besides, the “reduction in SMIC80 value in combination” value in series [2] (1172 strain) worked out at 128 fold; in series [2] (ATCC 34872) it was 16 fold. The CC50 at 24 h in series [5] (setting [11]) is 121 µg/mL (≈ 513 µM); in [5] (human, HeLa cells), 83.8 µg/mL (≈ 355 µM); in [5] (rhesus monkey, LLC-MK2 cells), 71.7 µg/mL (≈ 303 µM); in series [9] (read-out: CC50, range over cell lines), 61 to 121 µg/mL (≈ 258 to 513 µM). Further, the CC90 at 24 h in series [5] (setting [11]) is 244 µg/mL (≈ 1030 µM); in [5] (human, HeLa cells), 154 µg/mL (≈ 650 µM); in series [5] (rhesus monkey, LLC-MK2 cells) it was 143 µg/mL (≈ 603 µM); in [9] (read-out: CC90, range over cell lines), 143 to 244 µg/mL (≈ 603 to 1030 µM). In addition, the SI in series [6] is listed as 2.5; in series [7] it was 2.3; in series [8], 3.9; in [10], “greater than 16”.

What is called CC50 is the concentration giving 50% cytotoxicity.
